Values after ≈ are worked out from the molar mass of the structure shown. Counter-ions that a name gives are not always drawn.
Experiments:
E. Coli (920) = test: oral antibacterial activity in intraperitoneally infected CD-1 mice; format: in vivo
Description: (§1) The oral antibacterial activity of the compounds of this invention was establihsed by intraperitoneally infecting four groups of 10 male mice CD-1 strain weighing 17-19 grams with 0.5 milliliter of a standardized suspension of bacterium in 5 percent gastric mucin. The animals were then randomized and at 6 hours post infection a single dose of the antibacterial compound being tested was given orally at 7.2, 3.6, 1.8 and 0.9 mg/mouse to each group of 10 mice.
(§2) Testing against E. Coli (920-LD95), as a general representative of gram-negative bacteria, was followed by testing against Proteus vulgaris (347) as an example of a special application against a gram negative bacterium. In the oral anti-bacterial activity test, an arbitrary maximum dose is set at 7.2 milligrams per mouse below which activity must be found before a compound is considered orally active. The arbitrary maximum dose of 7.2 milligrams per mouse represents a practical dose limit in terms of the potency of known orally active antibacterial agents.

Proteus vulgaris (347) = test: as above; format: in vivo
Description: as §1, §2

E. Coli W-102 = test: as above; format: in vivo; conditions: E. Coli W-102, at 7.2 mg/mouse
Description: as §1, §2

E. Coli (E-2) = test: as above; format: in vivo
Description: as §1, §2

E. Coli (E-3) = test: as above; format: in vivo
Description: as §1, §2

St Py = test: as above; format: in vivo; conditions: P.O., single dose 6 hours post infection, 14 days
Description: as §1, §2

Kl Pn = test: as above; format: in vivo; conditions: P.O., single dose 6 hours post infection, 14 days
Description: as §1, §2

Pr Mi = test: as above; format: in vivo; conditions: P.O., single dose 6 hours post infection, 14 days
Description: as §1, §2

St Au (Smith) = test: as above; format: in vivo
Description: as §1, §2

St Au CHP = test: in vitro agar serial dilution, MIC; format: cell-based; conditions: strain CHP
St Au 53-180 = test: in vitro agar serial dilution, MIC; format: cell-based; conditions: strain 53-180
Pr Mi 9921 = test: in vitro agar serial dilution, MIC; format: cell-based; conditions: strain 9921
Ps Ae 10145 = test: in vitro agar serial dilution, MIC; format: cell-based; conditions: strain 10145
Kl Pn 10031 = test: in vitro agar serial dilution, MIC; format: cell-based; conditions: strain 10031
Es In 65-1 = test: in vitro agar serial dilution, MIC; format: cell-based; conditions: strain 65-1
Sa Pa 11737 = test: in vitro agar serial dilution, MIC; format: cell-based; conditions: strain 11737
Es Co 9637 = test: in vitro agar serial dilution, MIC; format: cell-based; conditions: strain 9637
My Sm 10143 = test: in vitro agar serial dilution, MIC; format: cell-based; conditions: strain 10143
St Au 6538P = test: in vitro agar serial dilution, MIC; format: cell-based; conditions: strain 6538P
St Au Smith = test: in vitro agar serial dilution, MIC; format: cell-based; conditions: strain Smith
Ne Ca 819 = test: in vitro agar serial dilution, MIC; format: cell-based; conditions: strain 819
En Ae 13048 = test: in vitro agar serial dilution, MIC; format: cell-based; conditions: strain 13048
[1] = E. Coli, P.O., single dose 6 hours post infection, 14 days
[2] = Pr Bu, P.O., single dose 6 hours post infection, 14 days
[3] = P.O., single dose 6 hours post infection, 14 days

Question: How did the CD50 (E. Coli (920); E. Coli (920), oral) turn out when Cn1nnnc1SCC1=C(C(=O)O)N2C(=O)C(NC(=O)CCN3C(=O)CSC3=S)C2SC1 (stereo not drawn) was run?
Answer: 3.05 mg/mouse

Question: What about the CD50 (Proteus vulgaris (347); Pr vulgaris (347), oral) of the same molecule?
Answer: 5.90 mg/mouse

Question: And the oral antibacterial activity (E. Coli W-102)?
Answer: inactive

Question: And the CD50 (E. Coli (E-2))?
Answer: 3.30 mg/mouse

Question: And the CD50 (E. Coli (E-3))?
Answer: 2.12 mg/mouse

Question: How did the CD50 (E. Coli (920); [1]) turn out when CC1=C(C(=O)O)N2C(=O)[C@@H](NC(=O)[C@H](N)C3=CCC=CC3)[C@H]2SC1 [Cephradine, reference compound] was run?
Answer: 2.27 mg/mouse

Question: What about the CD50 (Proteus vulgaris (347); [2]) of the same molecule?
Answer: 6.52 mg/mouse

Question: And the CD50 (St Py)?
Answer: < 0.45 mg/mouse

Question: What about the CD50 (Kl Pn) of the same molecule?
Answer: 2.42 mg/mouse

Question: What about the CD50 (Pr Mi) of the same molecule?
Answer: 2.25 mg/mouse

Question: What about the CD50 (St Au (Smith); [3]) of the same molecule?
Answer: 0.140 mg/mouse

Question: Which results are given for Cn1nnnc1SCC1=C(C(=O)O)N2C(=O)C(NC(=O)CCN3C(=O)CSC3=S)C2SC1 (stereo not drawn) [Ex. 1-Na salt]?
Answer: CD50 (E. Coli (920); [1]): 2.35 mg/mouse; CD50 (Proteus vulgaris (347); [2]): 5.97 mg/mouse; CD50 (St Py): > 3.6 mg/mouse; CD50 (Kl Pn): 1.36 mg/mouse; CD50 (Pr Mi): 4.49 mg/mouse; CD50 (St Au (Smith); [3]): 2.73 mg/mouse

Question: With Cn1nnnc1SCC1=C(C(=O)O)N2C(=O)C(NC(=O)CCN3C(=O)CSC3=S)C2SC1 (stereo not drawn) [Example 1 acid] as the molecule, how does the MIC (St Au CHP) read?
Answer: 7.81 µg/mL (≈ 15.1 µM)

Question: What about the MIC (St Au 53-180) of the same molecule?
Answer: 3.9 µg/mL (≈ 7.56 µM)

Question: What about the MIC (Pr Mi 9921) of the same molecule?
Answer: 0.97 µg/mL (≈ 1.88 µM)

Question: What about the MIC (Ps Ae 10145) of the same molecule?
Answer: 250 µg/mL (≈ 485 µM)

Question: What about the MIC (Kl Pn 10031) of the same molecule?
Answer: 3.9 µg/mL (≈ 7.56 µM)

Question: And the CD50 (E. Coli (920); E. Coli (920), buffered to pH 4.9 in aqueous solution)?
Answer: 2.97 mg/mouse

Question: What about the CD50 (Proteus vulgaris (347); Pr vulgaris (Pr-347), buffered to pH 4.9 in aqueous solution) of the same molecule?
Answer: 5.97 mg/mouse

Question: What about the CD50 (St Au (Smith); buffered to pH 4.9 in aqueous solution) of the same molecule?
Answer: 2.73 mg/mouse

Question: And the MIC (Es In 65-1)?
Answer: 62.5 µg/mL (≈ 121 µM)

Question: And the MIC (Sa Pa 11737)?
Answer: 0.97 µg/mL (≈ 1.88 µM)

Question: And the MIC (Es Co 9637)?
Answer: 3.9 µg/mL (≈ 7.56 µM)

Question: What about the MIC (My Sm 10143) of the same molecule?
Answer: 250 µg/mL (≈ 485 µM)

Question: And the MIC (St Au 6538P)?
Answer: 1.95 µg/mL (≈ 3.78 µM)

Question: What about the MIC (St Au Smith) of the same molecule?
Answer: 1.95 µg/mL (≈ 3.78 µM)

Question: What about the MIC (Ne Ca 819) of the same molecule?
Answer: 31.3 µg/mL (≈ 60.7 µM)

Question: And the MIC (En Ae 13048)?
Answer: 250 µg/mL (≈ 485 µM)

Source: US4094979A, “Orally active cephalosporins” (American Home Products Corporation, priority 1976, dated 1978)
